In article PMC7191645 (Molecular Metabolism, 2020):

Target: β3-adrenoceptor (β3-AR) (Mus musculus, UniProt P25962)
Test: Epac1-camps FRET cAMP concentration-response in mature murine brown adipocytes
Type: cell-based

β3-adrenoceptor (β3-AR), sequence (P25962 whole entry): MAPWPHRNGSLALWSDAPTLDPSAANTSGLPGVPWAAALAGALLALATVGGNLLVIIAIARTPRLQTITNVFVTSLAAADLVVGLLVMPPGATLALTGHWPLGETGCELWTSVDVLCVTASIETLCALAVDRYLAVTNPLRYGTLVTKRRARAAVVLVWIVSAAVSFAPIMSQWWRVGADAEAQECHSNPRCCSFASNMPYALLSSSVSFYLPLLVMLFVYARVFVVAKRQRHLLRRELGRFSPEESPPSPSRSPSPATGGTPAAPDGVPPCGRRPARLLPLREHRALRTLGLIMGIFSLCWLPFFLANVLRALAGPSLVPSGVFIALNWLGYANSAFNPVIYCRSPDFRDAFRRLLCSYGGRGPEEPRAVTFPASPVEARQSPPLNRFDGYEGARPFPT

C[C@H](Cc1ccc2c(c1)OC(C(=O)O)(C(=O)O)O2)NC[C@H](O)c1cccc(Cl)c1 [CL, CL 316,243] showed an EC50 of 7.8 µM.
